Numbers after ± are expanded uncertainties.

A short description of the first data set: activity coefficient (dimensionless); of the first substance listed, at infinite dilution; xn = mol fraction of the nth substance listed. The conditions noted are these: 358.15 K; 101 kPa; Liquid; Chromatography; x1 = 0.
Regarding `CC#N` [acetonitrile] + COCC[N+]1(C)CCCC1.O=S(=O)([N-]S(=O)(=O)C(F)(F)F)C(F)(F)F, the activity coefficient is 0.477 ± 0.037.

As for `C=CCCCCCCCC` [1-decene] + COCC[N+]1(C)CCCC1.O=S(=O)([N-]S(=O)(=O)C(F)(F)F)C(F)(F)F, the activity coefficient amounted to 31.7 ± 2.2.

Take `CCCOCCC` [dipropyl ether] + COCC[N+]1(C)CCCC1.O=S(=O)([N-]S(=O)(=O)C(F)(F)F)C(F)(F)F: the activity coefficient amounted to 6.47 ± 0.44.

`Cc1ccc(C)cc1` [1,4-dimethylbenzene] + COCC[N+]1(C)CCCC1.O=S(=O)([N-]S(=O)(=O)C(F)(F)F)C(F)(F)F: the activity coefficient stood at 2.21 ± 0.15.

As for `C1CCOC1` [tetrahydrofuran] + COCC[N+]1(C)CCCC1.O=S(=O)([N-]S(=O)(=O)C(F)(F)F)C(F)(F)F, the activity coefficient was 0.87 ± 0.06.

As to `CCC[N+](=O)[O-]` [1-nitropropane] + COCC[N+]1(C)CCCC1.O=S(=O)([N-]S(=O)(=O)C(F)(F)F)C(F)(F)F, the activity coefficient is 0.746 ± 0.049.

On to `C=C(C)c1ccccc1` [(1-methylethenyl)benzene] + COCC[N+]1(C)CCCC1.O=S(=O)([N-]S(=O)(=O)C(F)(F)F)C(F)(F)F, for which the activity coefficient was 2.08 ± 0.14.

As for `CCOC(C)=O` [ethyl acetate] + COCC[N+]1(C)CCCC1.O=S(=O)([N-]S(=O)(=O)C(F)(F)F)C(F)(F)F, the activity coefficient turned out to be 1.02 ± 0.06.

For `c1ccsc1` [thiophene] + COCC[N+]1(C)CCCC1.O=S(=O)([N-]S(=O)(=O)C(F)(F)F)C(F)(F)F, the activity coefficient came out at 0.929 ± 0.059.

With `C=CCCCCCC` [oct-1-ene] + COCC[N+]1(C)CCCC1.O=S(=O)([N-]S(=O)(=O)C(F)(F)F)C(F)(F)F, the activity coefficient was 16.3 ± 1.1.

For the compound `CCCCCCC` [heptane] + COCC[N+]1(C)CCCC1.O=S(=O)([N-]S(=O)(=O)C(F)(F)F)C(F)(F)F, the activity coefficient turned out to be 21.1 ± 1.4.

With `C#CCCCCCC` [1-octyne] + COCC[N+]1(C)CCCC1.O=S(=O)([N-]S(=O)(=O)C(F)(F)F)C(F)(F)F, the activity coefficient is 6.37 ± 0.43.

For the compound `C=CCCCCC` [1-heptene] + COCC[N+]1(C)CCCC1.O=S(=O)([N-]S(=O)(=O)C(F)(F)F)C(F)(F)F, the activity coefficient worked out at 11.8 ± 0.8.

Still in this data set, the particulars now being: 368.15 K; 101 kPa; Liquid; Chromatography; x1 = 0.
For the compound `CCCC=O` [butanal] + COCC[N+]1(C)CCCC1.O=S(=O)([N-]S(=O)(=O)C(F)(F)F)C(F)(F)F, the activity coefficient came out at 0.876 ± 0.056.

For `CCCCC` [pentane] + COCC[N+]1(C)CCCC1.O=S(=O)([N-]S(=O)(=O)C(F)(F)F)C(F)(F)F, the activity coefficient worked out at 10.5 ± 0.7.

Take `CC(C)CO` [2-methyl-1-propanol] + COCC[N+]1(C)CCCC1.O=S(=O)([N-]S(=O)(=O)C(F)(F)F)C(F)(F)F: the activity coefficient amounted to 1.7 ± 0.11.

Regarding `C1COCCO1` [1,4-dioxane] + COCC[N+]1(C)CCCC1.O=S(=O)([N-]S(=O)(=O)C(F)(F)F)C(F)(F)F, the activity coefficient came out at 0.76 ± 0.05.

Consider `CCC(=O)OC` [methyl propanoate] + COCC[N+]1(C)CCCC1.O=S(=O)([N-]S(=O)(=O)C(F)(F)F)C(F)(F)F, for which the activity coefficient is 1.01 ± 0.06.

With `CCCCO` [butan-1-ol] + COCC[N+]1(C)CCCC1.O=S(=O)([N-]S(=O)(=O)C(F)(F)F)C(F)(F)F, the activity coefficient came to 1.84 ± 0.12.

Consider `CCC(C)(C)OC` [2-methoxy-2-methylbutane] + COCC[N+]1(C)CCCC1.O=S(=O)([N-]S(=O)(=O)C(F)(F)F)C(F)(F)F, for which the activity coefficient stood at 4 ± 0.27.

Take `CCCCCCCC` [octane] + COCC[N+]1(C)CCCC1.O=S(=O)([N-]S(=O)(=O)C(F)(F)F)C(F)(F)F: the activity coefficient turned out to be 27 ± 1.8.

For the compound `CCO` [ethanol] + COCC[N+]1(C)CCCC1.O=S(=O)([N-]S(=O)(=O)C(F)(F)F)C(F)(F)F, the activity coefficient came to 1.2 ± 0.08.

Regarding `CCC(C)O` (stereo not drawn) [butan-2-ol] + COCC[N+]1(C)CCCC1.O=S(=O)([N-]S(=O)(=O)C(F)(F)F)C(F)(F)F, the activity coefficient was 1.61 ± 0.11.

As for `CCc1ccccc1` [ethylbenzene] + COCC[N+]1(C)CCCC1.O=S(=O)([N-]S(=O)(=O)C(F)(F)F)C(F)(F)F, the activity coefficient was 2.26 ± 0.15.

On to `C1=CCCCC1` [cyclohexene] + COCC[N+]1(C)CCCC1.O=S(=O)([N-]S(=O)(=O)C(F)(F)F)C(F)(F)F, for which the activity coefficient turned out to be 5.1 ± 0.35.

Consider `CC#N` [acetonitrile] + COCC[N+]1(C)CCCC1.O=S(=O)([N-]S(=O)(=O)C(F)(F)F)C(F)(F)F, for which the activity coefficient turned out to be 0.479 ± 0.037.

For the compound `C=CCCCCCCCC` [1-decene] + COCC[N+]1(C)CCCC1.O=S(=O)([N-]S(=O)(=O)C(F)(F)F)C(F)(F)F, the activity coefficient is 29.8 ± 2.

As to `CCCOCCC` [dipropyl ether] + COCC[N+]1(C)CCCC1.O=S(=O)([N-]S(=O)(=O)C(F)(F)F)C(F)(F)F, the activity coefficient is 6.32 ± 0.43.

For `Cc1ccc(C)cc1` [1,4-dimethylbenzene] + COCC[N+]1(C)CCCC1.O=S(=O)([N-]S(=O)(=O)C(F)(F)F)C(F)(F)F, the activity coefficient was found to be 2.23 ± 0.15.

Consider `C1CCOC1` [tetrahydrofuran] + COCC[N+]1(C)CCCC1.O=S(=O)([N-]S(=O)(=O)C(F)(F)F)C(F)(F)F, for which the activity coefficient was 0.88 ± 0.06.

Turning to `CCC[N+](=O)[O-]` [1-nitropropane] + COCC[N+]1(C)CCCC1.O=S(=O)([N-]S(=O)(=O)C(F)(F)F)C(F)(F)F, the activity coefficient stood at 0.747 ± 0.049.

As to `C=C(C)c1ccccc1` [(1-methylethenyl)benzene] + COCC[N+]1(C)CCCC1.O=S(=O)([N-]S(=O)(=O)C(F)(F)F)C(F)(F)F, the activity coefficient was 2.12 ± 0.14.

Regarding `CCOC(C)=O` [ethyl acetate] + COCC[N+]1(C)CCCC1.O=S(=O)([N-]S(=O)(=O)C(F)(F)F)C(F)(F)F, the activity coefficient came to 1.03 ± 0.06.

Regarding `c1ccsc1` [thiophene] + COCC[N+]1(C)CCCC1.O=S(=O)([N-]S(=O)(=O)C(F)(F)F)C(F)(F)F, the activity coefficient was 0.938 ± 0.059.

Consider `C=CCCCCCC` [oct-1-ene] + COCC[N+]1(C)CCCC1.O=S(=O)([N-]S(=O)(=O)C(F)(F)F)C(F)(F)F, for which the activity coefficient amounted to 15.6 ± 1.1.

As for `CCCCCCC` [heptane] + COCC[N+]1(C)CCCC1.O=S(=O)([N-]S(=O)(=O)C(F)(F)F)C(F)(F)F, the activity coefficient worked out at 19.7 ± 1.3.

With `C#CCCCCCC` [1-octyne] + COCC[N+]1(C)CCCC1.O=S(=O)([N-]S(=O)(=O)C(F)(F)F)C(F)(F)F, the activity coefficient came out at 6.27 ± 0.43.

On to `C=CCCCCC` [1-heptene] + COCC[N+]1(C)CCCC1.O=S(=O)([N-]S(=O)(=O)C(F)(F)F)C(F)(F)F, for which the activity coefficient was found to be 11.4 ± 0.8.

The values above are taken from the NIST ThermoML archive (doi:10.1016/j.jct.2012.03.015).
